From patent publication US20250235499A1, “ANTI-OVARIAN CANCER PHARMACEUTICAL COMPOSITION AND ACTION TARGET THEREOF” (Zhejiang Chinese Medical University, priority 2024, published 2025)

Experiments:
Format in all cases: cell-based, human
[1] = system: E-cadherin, N-cadherin, Vimentin in SKOV3 cells; assay: Expression of EMT related proteins in cells
Hey ovarian cancer cells [2] = assay: Cell migration and invasion (small chamber) with MCM2 knockdown or overexpression
Method: (§1) The night before collecting cells, small chambers were placed in a 24 well plate. A matrix gel was taken out from the −20° C. refrigerator and placed to melt naturally on ice. The thawed matrix gel was mixed with serum-free medium in a ratio of 1:5, and 100 μL of the mixture was added to each chamber. After preparation, the 24 well plate was placed in the incubator overnight. The next day, SKOV3 and Hey ovarian cancer cells in logarithmic growth phase were knocked down with MCM2 (Control group, sh-NC group, sh-MCM2 group) and overexpressed with MCM2 (Control group, OE-NC group, OE-MCM2 group). The original culture medium was discarded, washed with PBS buffer, and digested with 0.1% trypsin. A corresponding serum-free culture medium was added to prepare a cell suspension. Cells were counted using a hemocytometer and the cell concentration was quantified at 5×10^4 cells/mL. The 24 well plate was taken out and placed in a small chamber for a migration experiment and the 24 well plate with the matrix gel for an invasion experiment. 200 μL of a corresponding cell suspension was added to an upper chamber, and 700 μL of a corresponding culture medium containing 10% FBS was added to a lower chamber. The 24 well plate was further placed in an incubator for cultivation. The 24 well plate for the migration experiment was cultured for 24 hours before being taken out, while the 24 well plate for the invasion experiment was cultured for 48 hours before being taken out. The culture medium in the small chamber was poured out. The inside of the small chamber was cleaned with a cotton swab, and washed twice with the PBS buffer. The small chamber was fixed in 4% paraformaldehyde for 30 minutes, and stained in 1% crystal violet solution for 10 minutes after fixation. The small chamber was taken out, washed twice with the PBS buffer, dried with an absorbent paper, observed and counted under a microscope. The impact of CA, BDMC, and combined administration intervention on cell migration after knocking down MCM2 in SKOV3 and Hey ovarian cancer cells was shown in FIGS. 19A-19D. The scale in FIGS. 19A-19D was 10 μM; A represented the migration of SKOV3 cells; B represented the migration of Hey cells; C represented the invasion of SKOV3 cells; and D represented the invasion of Hey cells. Compared with the sh-NC group, ##P<0.01; compared with the sh-NC+CA+BDMC group, &&P<0.01; and ** P<0.01. The impact of CA, BDMC, and combined administration intervention on cell migration after overexpression of MCM2 on the SKOV3 and Hey ovarian cancer cells was shown in FIGS. 20A-20D. The scale in FIGS. 20A-20D was 10 μM, A represented the migration of SKOV3 cells; B represented the migration of Hey cells; C represented the invasion of SKOV3 cells; and D represented the invasion of Hey cells. Compared with the OE-NC group, ##P<0.01; compared with the OE-NC+CA+BDMC group, &&P<0.01; and compared with the OE-MCM2+CA+BDMC group, ΔP<0.05, ΔΔP<0.01; and ** P<0.01.

[3] = system: SKOV3 ovarian cancer cells; assay: as above
Method: as §1

Hey ovarian cancer cells [4] = assay: Cell cycle by flow cytometry (PI) with MCM2 knockdown or overexpression
Method: (§2) SKOV3 and Hey ovarian cancer cells in logarithmic growth phase were knocked down with MCM2 (Control group, sh-NC group, sh-MCM2 group) and overexpressed with MCM2 (Control group, OE-NC group, OE-MCM2 group). The original culture medium was discarded, washed with PBS buffer, and digested with 0.1% trypsin. A corresponding culture medium was added to prepare a cell suspension. Cells were counted using a hemocytometer and a cell concentration was quantified at 5×10^4 cells/mL. 1500 μL of each well was inoculated into a 6 well plate, with 3 parallel wells in each group, and incubated in a 37° C. incubator containing 5% CO2 for 24 hours. After the cultivation time was over, the six well plate was taken out and aspirated the original culture medium from the wells for later use. The PBS buffer was added to gently wash the cells three times. 500 μL of 0.1% trypsin was added to each well to wait for the cells to be blown off with a pipette, then the original culture medium from the wells was added to terminate digestion. A pipette was used to gently blow off all the cells on the wall of the six well plate. The cell suspension was aspirated, transferred to a centrifuge tube, and centrifuged at 4° C. and 1000 rpm for 5 minutes. The supernatant was discarded, and 1 mL of pre-cooled PBS buffer was added to gently resuspend the cells, and transferred to a 1.5 mL sterile centrifuge tube. The mixture was centrifuged at 4° C. and 1000 rpm for 5 minutes, the supernatant was discarded, and the bottom of the centrifuge tube was gently tapped to disperse the cells. 1 mL of pre-cooled 70% ethanol was added, blown and mixed well to form a cell suspension, and placed in a refrigerator at 4° C. for 24 hours. After fixation, a water bath kettle was opened in advance, the temperature was set to 37° C., the centrifugation was performed for 5 minutes at 4° C. and 1000 rpm, and the supernatant was discarded. 1 mL of pre-cooled PBS buffer was added and gently resuspended to wash the cells. The mixture was centrifuged at 4° C. and 1000 rpm for 5 minutes, the supernatant was discarded, and the bottom of the centrifuge tube was gently tapped to disperse the cells. 500 μL of PI staining working solution containing RNase was added to each cell sample to be tested, and placed in a 37° C. dark water bath for 30 minutes. A flow cytometer was used to detect red fluorescence at an excitation wavelength of 488 nm, while also measuring light scattering. A modfit 3.2 version was used for cell DNA cycle analysis.

[5] = system: SKOV3 ovarian cancer cells; assay: as above
Method: as §2

[6] = SKOV3 OE-MCM2 cells (MCM2 overexpression), vs OE-MCM2 group
[7] = SKOV3 OE-NC cells (empty vector), vs OE-NC group
[8] = SKOV3 sh-MCM2 cells (MCM2 knockdown), vs sh-MCM2 group
[9] = SKOV3 sh-NC cells (empty vector), vs sh-NC group
[10] = Hey OE-MCM2 cells (MCM2 overexpression), vs OE-MCM2 group
[11] = Hey OE-NC cells (empty vector), vs OE-NC group
[12] = Hey sh-MCM2 cells (MCM2 knockdown), vs sh-MCM2 group
[13] = Hey sh-NC cells (empty vector), vs sh-NC group

COc1ccc(-c2coc3cc(O)ccc3c2=O)cc1O [CA, calycosin]
expression of E-cadherin [1, 6]: no significant change
expression of N-cadherin [1, 6]: no significant change
expression of Vimentin [1, 6]: no significant change
expression of E-cadherin [1, 7]: significantly increased
expression of N-cadherin [1, 7]: significantly decreased
expression of Vimentin [1, 7]: significantly decreased
expression of E-cadherin [1, 8]: no significant change
expression of N-cadherin [1, 8]: no significant change
expression of Vimentin [1, 8]: no significant change
expression of E-cadherin [1, 9]: significantly increased
expression of N-cadherin [1, 9]: significantly decreased
expression of Vimentin [1, 9]: significantly decreased
number of the invading cells (Hey ovarian cancer cells [2]; [10]): no significant change
number of the migrating cells (Hey ovarian cancer cells [2]; [10]): no significant change
number of the invading cells (Hey ovarian cancer cells [2]; [11]): significantly reduced
number of the migrating cells (Hey ovarian cancer cells [2]; [11]): significantly reduced
number of the invading cells (Hey ovarian cancer cells [2]; [12]): no significant change
number of the migrating cells (Hey ovarian cancer cells [2]; [12]): no significant change
number of the invading cells (Hey ovarian cancer cells [2]; [13]): significantly reduced
number of the migrating cells (Hey ovarian cancer cells [2]; [13]): significantly reduced
number of the invading cells [3, 6]: no significant change
number of the migrating cells [3, 6]: no significant change
number of the invading cells [3, 7]: significantly reduced
number of the migrating cells [3, 7]: significantly reduced
number of the invading cells [3, 8]: no significant change
number of the migrating cells [3, 8]: no significant change
number of the invading cells [3, 9]: significantly reduced
number of the migrating cells [3, 9]: significantly reduced
percentage of G0/G1 phase cells (Hey ovarian cancer cells [4]; [10]): no significant change
percentage of G0/G1 phase cells (Hey ovarian cancer cells [4]; [11]): significantly increased
percentage of G0/G1 phase cells (Hey ovarian cancer cells [4]; [12]): no significant change
percentage of G0/G1 phase cells (Hey ovarian cancer cells [4]; [13]): significantly increased
percentage of G0/G1 phase cells [5, 6]: no significant change
percentage of G0/G1 phase cells [5, 7]: significantly increased
percentage of G0/G1 phase cells [5, 8]: no significant change
percentage of G0/G1 phase cells [5, 9]: significantly increased
